In assay [1] the target is GSK3β (H350L) (Homo sapiens (Human), UniProt P49841). Conditions: read-out: GSK3β Ki.
Procedure: The assay was initiated with the addition of ATP, following 15 minutes pre-incubation of enzyme and inhibitor at room temperature in the reaction mixture. The reaction was stopped after 30 minutes at room temperature by the addition of 50 μL of 80 mM EDTA.
Assay [2] addresses CDK2/Cyclin E1 full length (Homo sapiens (Human), UniProt P24941). The experiment in a line: CDK2/Cyclin E1 full length mobility shift assay. Format: biochemical.

GSK3β (H350L), sequence (P49841 whole entry, stated change not applied): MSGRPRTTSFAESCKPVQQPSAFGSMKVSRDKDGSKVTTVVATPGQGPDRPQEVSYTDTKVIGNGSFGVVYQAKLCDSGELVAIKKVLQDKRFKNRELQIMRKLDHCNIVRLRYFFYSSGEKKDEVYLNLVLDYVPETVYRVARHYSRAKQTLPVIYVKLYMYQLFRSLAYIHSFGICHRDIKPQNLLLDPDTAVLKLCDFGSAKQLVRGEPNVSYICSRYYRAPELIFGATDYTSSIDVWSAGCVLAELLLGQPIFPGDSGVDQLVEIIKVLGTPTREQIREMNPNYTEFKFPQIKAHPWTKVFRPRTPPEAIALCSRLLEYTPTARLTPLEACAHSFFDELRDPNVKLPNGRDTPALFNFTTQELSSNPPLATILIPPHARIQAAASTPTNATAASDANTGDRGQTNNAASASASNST

As for `CC[C@H](C)NC(=O)O[C@@H]1CC[C@H](c2cc(NC(=O)Cc3cnn(C(C)C)c3)n[nH]2)C1` [Example 349, (1R,3S)-3-[3-({[1-(propan-2-yl)-1H-pyrazol-4-yl]acetyl}amino)-1H-pyrazol-5-yl]cyclopentyl (2S)-butan-2-ylcarbamate], the figures for the Ki in assay [1] and in assay [2] were 57.3 nM and 0.4 nM, respectively.

As to `CC[C@H](C)NC(=O)O[C@@H]1CC[C@H](c2cc(NC(=O)Cc3sc(C)nc3C)n[nH]2)C1` [Example 352, (1R,3S)-3-(3-{[(2,4-dimethyl-1,3-thiazol-5-yl)acetyl]amino}-1H-pyrazol-5-yl)cyclopentyl (2S)-butan-2-ylcarbamate], the results for the Ki in assay [1] and in assay [2] were 58.4 nM and 0.82 nM, respectively.

As for `CC[C@H](C)NC(=O)O[C@@H]1CC[C@H](c2cc(NC(=O)Cc3ncc(OC)s3)n[nH]2)C1` [Example 353, (1R,3S)-3-(3-{[(5-methoxy-1,3-thiazol-2-yl)acetyl]amino}-1H-pyrazol-5-yl)cyclopentyl (2S)-butan-2-ylcarbamate], the results for the Ki in assay [1] and in assay [2] were 29.5 nM and 0.5 nM, respectively.

Regarding `CC[C@H](C)NC(=O)O[C@@H]1CC[C@H](c2cc(NC(=O)Cc3cn4ccsc4n3)n[nH]2)C1` [Example 355, (1R,3S)-3-{3-[(imidazo[2,1-b][1,3]thiazol-6-ylacetyl)amino]-1H-pyrazol-5-yl}cyclopentyl (2S)-butan-2-ylcarbamate], the Ki in assay [1] was determined as 18.1 nM; in assay [2], 1.13 nM.

Take `CC[C@H](C)NC(=O)O[C@@H]1CC[C@H](c2cc(NC(=O)c3ccnn3CCN(C)C)[nH]n2)C1` [Example 356, (1R,3S)-3-{5-[({1-[2-(dimethylamino)ethyl]-1H-pyrazol-5-yl}carbonyl)amino]-1H-pyrazol-3-yl}cyclopentyl (2S)-butan-2-ylcarbamate]: the Ki was determined as 148 nM in assay [1] and 0.67 nM in assay [2].

Turning to `CC[C@H](C)NC(=O)O[C@@H]1CC[C@H](c2cc(NC(=O)Cc3cn4nc(C)sc4n3)n[nH]2)C1` [Example 359, (1R,3S)-3-(3-{[(2-methylimidazo[2,1-b][1,3,4]thiadiazol-6-yl)acetyl]amino}-1H-pyrazol-5-yl)cyclopentyl (2S)-butan-2-ylcarbamate], the values for the Ki in assay [1] and in assay [2] were 28.5 nM and 0.39 nM, respectively.

Consider `CC[C@H](C)NC(=O)O[C@@H]1CC[C@H](c2cc(NC(=O)Cc3cccc4c3CN(C)C4=O)n[nH]2)C1` [Example 361, (1R,3S)-3-(3-{[(2-methyl-1-oxo-2,3-dihydro-1H-isoindol-4-yl)acetyl]amino}-1H-pyrazol-5-yl)cyclopentyl (2S)-butan-2-ylcarbamate], for which the Ki in assay [1] was 25.6 nM; in assay [2], 0.94 nM.

Regarding `CC[C@H](C)NC(=O)O[C@@H]1CC[C@H](c2cc(NC(=O)Cc3cnc(C(F)(F)F)cn3)n[nH]2)C1` [Example 363, (1R,3S)-3-[3-({[5-(trifluoromethyl)pyrazin-2-yl]acetyl}amino)-1H-pyrazol-5-yl]cyclopentyl (2S)-butan-2-ylcarbamate], the figures for the Ki in assay [1] and in assay [2] were 52 nM and 0.35 nM, respectively.

On to `CC[C@H](C)NC(=O)O[C@@H]1CC[C@H](c2cc(NC(=O)Cc3ccc(C(=O)N(C)C)cc3)n[nH]2)C1` [Example 364, (1R,3S)-3-[3-({[4-(dimethylcarbamoyl)-phenyl]acetyl}amino)-1H-pyrazol-5-yl]cyclopentyl (2S)-butan-2-ylcarbamate], for which the figures for the Ki in assay [1] and in assay [2] were 59.9 nM and 0.82 nM, respectively.

Regarding `CCc1nn2cc(CC(=O)Nc3cc([C@H]4CC[C@@H](OC(=O)N[C@@H](C)CC)C4)[nH]n3)nc2s1` [Example 367, (1R,3S)-3-(3-{[(2-ethylimidazo[2,1-b][1,3,4]thiadiazol-6-yl)acetyl]amino}-1H-pyrazol-5-yl)cyclopentyl (2S)-butan-2-ylcarbamate], the figures for the Ki in assay [1] and in assay [2] were 23.5 nM and 0.27 nM, respectively.

Regarding `CC[C@H](C)NC(=O)O[C@@H]1CC[C@H](c2cc(NC(=O)Cc3cc(C)ccc3S(C)(=O)=O)n[nH]2)C1` [Example 371, (1R,3S)-3-[3-({[5-methyl-2-(methylsulfonyl)phenyl]acetyl}amino)-1H-pyrazol-5-yl]cyclopentyl (2S)-butan-2-ylcarbamate], the values for the Ki in assay [1] and in assay [2] were 161 nM and 0.32 nM, respectively.

With `CC[C@H](C)NC(=O)O[C@@H]1CC[C@H](c2cc(NC(=O)Cc3cccc(C)c3S(C)(=O)=O)n[nH]2)C1` [Example 372, (1R,3S)-3-[3-({[3-methyl-2-(methylsulfonyl)phenyl]acetyl}amino)-1H-pyrazol-5-yl]cyclopentyl (2S)-butan-2-ylcarbamate], the Ki worked out at 115 nM in assay [1] and 0.85 nM in assay [2].

Turning to `CC[C@H](C)NC(=O)O[C@@H]1CC[C@H](c2cc(NC(=O)Cc3cc(C)ncc3S(C)(=O)=O)n[nH]2)C1` [Example 373, (1R,3S)-3-[3-({[2-methyl-5-(methylsulfonyl)pyridin-4-yl]acetyl}amino)-1H-pyrazol-5-yl]cyclopentyl (2S)-butan-2-ylcarbamate], the Ki in assay [1] amounted to 74.3 nM; in assay [2], 0.47 nM.

Consider `CC[C@H](C)NC(=O)O[C@@H]1CC[C@H](c2cc(NC(=O)Cc3ccccc3S(=O)(=O)NC)n[nH]2)C1` [Example 374, (1R,3S)-3-[3-({[2-(methylsulfamoyl)phenyl]acetyl}amino)-1H-pyrazol-5-yl]cyclopentyl (2S)-butan-2-ylcarbamate], for which the Ki in assay [1] amounted to 10.8 nM; in assay [2] it was 0.32 nM.

For the molecule `CC[C@H](C)NC(=O)O[C@@H]1CC[C@H](c2cc(NC(=O)Cc3cc(OC)ncc3S(C)(=O)=O)n[nH]2)C1` [Example 375, (1R,3S)-3-[3-({[2-methoxy-5-(methylsulfonyl)pyridin-4-yl]acetyl}amino)-1H-pyrazol-5-yl]cyclopentyl (2S)-butan-2-ylcarbamate], the Ki in assay [1] came to 116 nM; in assay [2], 0.31 nM.

`CC[C@H](C)NC(=O)O[C@@H]1CC[C@H](c2cc(NC(=O)Cc3ccc(COC)cc3S(C)(=O)=O)[nH]n2)C1` [Example 376, (1R,3S)-3-[5-({[4-(methoxymethyl)-2-(methylsulfonyl)phenyl]acetyl}amino)-1H-pyrazol-3-yl]cyclopentyl (2S)-butan-2-ylcarbamate]: the Ki in assay [1] was found to be 99.3 nM; in assay [2] it was 0.4 nM.

In the case of `Cc1cnc(CC(=O)Nc2cc([C@H]3CC[C@@H](OC(=O)N[C@@H](C)[C@@H](C)F)C3)[nH]n2)o1` [Example 383, (1R,3S)-3-(3-{[(5-methyl-1,3-oxazol-2-yl)acetyl]amino}-1H-pyrazol-5-yl)cyclopentyl [(2S,3R)-3-fluorobutan-2-yl]carbamate], the Ki is 43.2 nM in assay [1] and 1.34 nM in assay [2].

With `C[C@H](CC(F)(F)F)NC(=O)O[C@@H]1CC[C@H](c2cc(NC(=O)Cc3cnn(C)c3)n[nH]2)C1` [Example 394, (1R,3S)-3-(3-{[(1-methyl-1H-pyrazol-4-yl)acetyl]amino}-1H-pyrazol-5-yl)cyclopentyl [(2R)-4,4,4-trifluorobutan-2-yl]carbamate], the Ki in assay [1] is 42.7 nM; in assay [2] it was 0.42 nM.

For the molecule `CC[C@H](C)CNC(=O)O[C@@H]1CC[C@H](c2cc(NC(=O)Cc3ccno3)n[nH]2)C1` [Example 415, (1R,3S)-3-{3-[(1,2-oxazol-5-ylacetyl)amino]-1H-pyrazol-5-yl}cyclopentyl[(2S)-2-methylbutyl]carbamate], the values for the Ki in assay [1] and in assay [2] were 26.4 nM and 1.48 nM, respectively.

As to `CC[C@H](C)CNC(=O)O[C@@H]1CC[C@H](c2cc(NC(=O)Cc3cnc(C)s3)n[nH]2)C1` [Example 417, (1R,3S)-3-(3-{[(2-methyl-1,3-thiazol-5-yl)acetyl]amino}-1H-pyrazol-5-yl)cyclopentyl [(2S)-2-methylbutyl]carbamate], the Ki in assay [1] is 12.6 nM; in assay [2], 0.81 nM.

As for `Cc1ccc(CC(=O)Nc2cc([C@H]3CC[C@@H](OC(=O)NC4(C)CC4)C3)[nH]n2)nc1` [Example 424, (1R,3S)-3-(3-{[(5-methylpyridin-2-yl)acetyl]amino}-1H-pyrazol-5-yl)cyclopentyl (1-methylcyclopropyl)carbamate], the Ki in assay [1] stood at 14.4 nM; in assay [2], 0.51 nM.

For the molecule `Cc1cccc(CC(=O)Nc2cc([C@H]3CC[C@@H](OC(=O)NC4(C)CC4)C3)[nH]n2)n1` [Example 426, (1R,3S)-3-(3-{[(6-methylpyridin-2-yl)acetyl]amino}-1H-pyrazol-5-yl)cyclopentyl (1-methylcyclopropyl)carbamate], the Ki came out at 17 nM in assay [1] and 0.53 nM in assay [2].

Consider `Cc1cnc(CC(=O)Nc2cc([C@H]3CC[C@@H](OC(=O)NC4(C)CC4)C3)[nH]n2)cn1` [Example 428, (1R,3S)-3-(3-{[(5-methylpyrazin-2-yl)acetyl]amino}-1H-pyrazol-5-yl)cyclopentyl (1-methylcyclopropyl)carbamate], for which the Ki in assay [1] turned out to be 30.1 nM; in assay [2], 0.4 nM.

With `COc1ccc(CC(=O)Nc2cc([C@H]3CC[C@@H](OC(=O)NC4(C)CC4)C3)[nH]n2)nc1` [Example 433, (1R,3S)-3-(3-{[(5-methoxypyridin-2-yl)acetyl]amino}-1H-pyrazol-5-yl)cyclopentyl (1-methylcyclopropyl)carbamate], the Ki in assay [1] turned out to be 17.1 nM; in assay [2] it was 0.5 nM.

`COc1cccc(CC(=O)Nc2cc([C@H]3CC[C@@H](OC(=O)NC4(C)CC4)C3)[nH]n2)n1` [Example 434, (1R,3S)-3-(3-{[(6-methoxypyridin-2-yl)acetyl]amino}-1H-pyrazol-5-yl)cyclopentyl (1-methylcyclopropyl)carbamate]: the results for the Ki in assay [1] and in assay [2] were 39.8 nM and 0.48 nM, respectively.

For the molecule `CC1(NC(=O)O[C@@H]2CC[C@H](c3cc(NC(=O)Cc4ccc(Cl)cn4)n[nH]3)C2)CC1` [Example 437, (1R,3S)-3-(3-{[(5-chloropyridin-2-yl)acetyl]amino}-1H-pyrazol-5-yl)cyclopentyl (1-methylcyclopropyl)carbamate], the Ki in assay [1] is 15.9 nM; in assay [2], 0.51 nM.

Regarding `COc1ccc(S(C)(=O)=O)c(CC(=O)Nc2cc([C@H]3CC[C@@H](OC(=O)NC4(C)CC4)C3)[nH]n2)c1` [Example 447, (1R,3S)-3-[3-({[5-methoxy-2-(methylsulfonyl)phenyl]acetyl}amino)-1H-pyrazol-5-yl]cyclopentyl (1-methylcyclopropyl)carbamate], the Ki in assay [1] was greater than 47.6 nM; in assay [2], 0.36 nM.

Broadly, the Ki is the equilibrium dissociation constant of an inhibitor or competing ligand from its target.

(Values after patent publication US11014911B2, “CDK2 inhibitors” (Pfizer Inc., priority 2019, dated 2021).)
